Measured values as given in patent US10632165B2, “Beneficial effect of Bidens pilosa on fat decrease and muscle increase” (Academia Sinica, priority 2016, dated 2020).

Key:
PPARγ = PPARγ expression in 3T3-L1 cells (Western blot); type: cell-based, mouse; conditions: inducer plus test substance
Experimental: 3T3-L1 pre-adipocytes were initiated for differentiation with DMSO (vehicle) and a mixture of Dex, IBMX and insulin for 2 days (B). The differentiating cells were then incubated with vehicle (inducer), rosiglitazone (RSG) or different doses of cytopiloyne until complete differentiation occurred. […] Expression of PPAR-γ and C/EBPα in 3T3-L1 cells treated with inducer in the presence of rosiglitazone (RSG) or cytopiloyne was analyzed by Western blot (C).
3T3-L1 cells were maintained in DMEM medium containing 10% FBS, 4 mM glutamine, 4.5 g/L glucose, 1 mM sodium pyruvate, and 1.5 g/L sodium bicarbonate. The differentiation of 3T3-L1 cells into adipocytes was initiated by the addition of 10 μM Dex, 0.5 mM IBMX and 10 μg/mL insulin to the confluent cells for 2 days. The cells were then differentiated in medium containing 10 μg/mL insulin together with DMSO, rosiglitazone and cytopiloyne for an additional 8 to 10 days. The medium was changed every 2 days until the differentiation was complete.

3T3-L1 pre-adipocytes = assay: Differentiation of 3T3-L1 pre-adipocytes, Oil Red O staining and lipid quantification; type: cell-based, mouse; conditions: 3T3-L1, inducer (Dex, IBMX and insulin) plus test substance
Experimental: (§1) The MTT assay of 3T3-L1 adipocytes grown in the medium containing vehicle or cytopiloyne at the indicated concentration for 24 hr is shown (A). 3T3-L1 pre-adipocytes were initiated for differentiation with DMSO (vehicle) and a mixture of Dex, IBMX and insulin for 2 days (B). The differentiating cells were then incubated with vehicle (inducer), rosiglitazone (RSG) or different doses of cytopiloyne until complete differentiation occurred. Lipid droplets from all the cells were visualized by Oil-Red-O staining and examined by light microscopy (left panel). Scale bars=10 μm. Oil Red O inside the cells was extracted and quantified at 520 nm (right panel). Expression of PPAR-γ and C/EBPα in 3T3-L1 cells treated with inducer in the presence of rosiglitazone (RSG) or cytopiloyne was analyzed by Western blot (C). The relative expression level (REL) of aP2 and adiponectin in 3T3-L1 cells was measured using real-time PCR (D). Effect of cytopiloyne on differentiation of human SGBS cells. The cells were incubated with DMEM/F12 medium (vehicle) or differentiation medium for 3 days (E). […]
(§2) The differentiated adipocytes were washed with phosphate-buffered saline (PBS) and fixed with 4% formaldehyde for 15 min. […] For lipid quantification, isopropanol was used to extract the intracellular oil red O, followed by measurement at 520 nm using a microplate reader.

3T3-L1 adipocytes = assay: MTT assay of cell viability of adipocytes; type: cell-based, mouse; conditions: 24 hr
Experimental: as §1, with “(E). The cells were then incubated with vehicle (inducer) and cytopiloyne (25 μM) until a complete differentiation.” for “(E).”
MTT assay was used to determine cell viability of adipocytes. […] The plate was measured at 570 nm (signal) and 650 nm (reference) using a microplate reader (UVM340, Biochrom, UK).

adiponectin = assay: Adiponectin expression in 3T3-L1 cells (real-time PCR); type: cell-based, mouse
Experimental: as §1, with “(E). The cells were then incubated with vehicle (inducer) and cytopiloyne (25 μM) until a complete differentiation. The cells were stained with Oil Red O and photographed. Scale bar=20 μm.” for “(E).”

aP2 = aP2 expression in 3T3-L1 cells (real-time PCR); type: cell-based, mouse
Experimental: as §1, with “(E). The cells were then incubated with vehicle (inducer) and cytopiloyne (25 μM) until a complete differentiation. The cells were stained with Oil Red O and photographed. Scale bar=20 μm.” for “(E).”

C/EBPα = C/EBPα expression in 3T3-L1 cells (Western blot); type: cell-based, mouse; conditions: inducer plus test substance
Experimental: as §1, with “(E). The cells were then incubated with vehicle (inducer) and cytopiloyne (25 μM) until a complete differentiation.” for “(E).”
Western Blot. […] After developing with ECL substrate (GE Healthcare, UK), the membranes were detected using FLUORCHEM™ HD2 system (Bio-Techne, Minneapolis, Minn., USA).

human SGBS cells = assay: Differentiation of human SGBS cells, Oil Red O staining; type: cell-based; conditions: 25 μM
Experimental: as §1, §2

## CC#CC#CC#CC#CCCC(CO)O[C@@H]1O[C@H](CO)[C@@H](O)[C@H](O)[C@H]1O (stereo partly drawn) [cytopiloyne, 2-β-D-glucopyranosyloxy-1-hydroxytrideca-5,7,9,11-tetrayne]
PPARγ
  PPARγ expression up-regulated by the inducer: abolished the up-regulation
3T3-L1 pre-adipocytes
  production of lipid droplets in adipocytes: dose-dependently inhibited this production
3T3-L1 adipocytes; 3T3-L1, 25 μM or less
  cytotoxicity (MTT): did not show cytotoxicity
3T3-L1 adipocytes; 3T3-L1, 50 μM
  cytotoxicity (MTT): slight cytotoxicity
adiponectin
  expression level of adiponectin up-regulated by the inducer: abolished this up-regulation
aP2
  expression level of aP2 up-regulated by the inducer: abolished this up-regulation
C/EBPα
  C/EBPα expression up-regulated by the inducer: abolished the up-regulation
Human SGBS cells
  production of lipid droplets: inhibitory effect of cytopiloyne on the production of lipid droplets was confirmed
